Tests used:
Test in all cases: Resistance against lysine analogue AEC, relative growth rate in M9 minimum medium
Format in all cases: cell-based, Escherichia coli
[1] = system: Wild type E. coli strain W3110; details: absorbance at 562 nm, relative to growth at zero AEC
Experimental: (§1) An Escherichia coli strain TF1 (Korean laid-open Patent No. 1992-0012444) was grown until the strain entered an exponential growth phase and suspended in a 0.1M phosphate buffer (pH 7.0) or 0.1M citrate buffer solution (pH 5.5). N-methyl-N′-nitro-nitrosoguanidine was added into the suspension to a final concentration of 200-500 μg/mL, reacted at 30° C. for 10-30 minutes, and inoculated into a minimum agar plate containing 1-30 g/L of a lysine analogue (AEC: S-(2-aminoethyl)-L-cysteine) to select an analogue-resistant strain. This strain was named “CJ40225”. The resistance of the strain against the lysine analogue was tested using an M9 minimum medium, and the relative growth rate was measured.
(§2) The used M9 minimum medium contained 4 g of glucose, 12.8 g of Na2HPO4.7H2O, 3 g of KH2PO4, 0.5 g of NaCl, and 1 g of NH4Cl per 1 liter of water.

E. coli strain CJ40225 = details: absorbance at 562 nm, relative to growth at zero AEC
Experimental: as §1, §2

E. coli strain TF1 = details: strain TE1 (so in the source), absorbance at 562 nm, relative to growth at zero AEC
Experimental: as §1, §2

Question: Which results are given for NCCSC[C@H](N)C(=O)O [AEC, S-(2-aminoethyl)-L-cysteine]?
Answer: Relative Growth Rate (%) ([1]; added AEC 5 g/L): 66.3%; Relative Growth Rate (%) ([1]; added AEC 10 g/L): 39.8%; Relative Growth Rate (%) ([1]; added AEC 20 g/L): 7.4%; Relative Growth Rate (%) (E. coli strain CJ40225; added AEC 5 g/L): 124.3%; Relative Growth Rate (%) (E. coli strain CJ40225; added AEC 10 g/L): 88.4%; Relative Growth Rate (%) (E. coli strain CJ40225; added AEC 20 g/L): 89.2%; Relative Growth Rate (%) (E. coli strain CJ40225; added AEC 40 g/L): 73.9%; Relative Growth Rate (%) (E. coli strain TF1; added AEC 5 g/L): 103.5%; Relative Growth Rate (%) (E. coli strain TF1; added AEC 10 g/L): 128.9%; Relative Growth Rate (%) (E. coli strain TF1; added AEC 20 g/L): 112.5%; Relative Growth Rate (%) (E. coli strain TF1; added AEC 40 g/L): 17.5%

— patent publication US7566553B2, “Microorganism of Escherichia Sp, or Corynebacterium Sp, comprising foreign NADP dependent glyceraldehyde-3-phosphate dehydrogenase gene and method for producing L-lysine using the same” (CJ Corporation, priority 2004, dated 2009)
